# Test results published in publication PMC12140054, “Small glycomimetic antagonists of the cytomegalovirus glycoprotein UL141 prevent binding to TRAIL death receptor” (The Journal of Biological Chemistry, 2025).
# Where “and” joins values, the source holds several entries; their conditions need not be identical. Identical values can stand only once.
# Legend:
# UL141 W235A mutant = molecular target: T1, UL141 W235A mutant (Human cytomegalovirus, UniProt Q6RJQ3, W235A); assay: SPR binding to UL141 alanine mutant W235A; conditions: W235A (site C), 0 to 25 μM
# T1 construct: extracellular domain of HCMV UL141 (residues 30–300, Gene ID: 3077418); made in house; host or cells: Sf9 (baculovirus)
# T1 sequence (Q6RJQ3 30-300 W235A): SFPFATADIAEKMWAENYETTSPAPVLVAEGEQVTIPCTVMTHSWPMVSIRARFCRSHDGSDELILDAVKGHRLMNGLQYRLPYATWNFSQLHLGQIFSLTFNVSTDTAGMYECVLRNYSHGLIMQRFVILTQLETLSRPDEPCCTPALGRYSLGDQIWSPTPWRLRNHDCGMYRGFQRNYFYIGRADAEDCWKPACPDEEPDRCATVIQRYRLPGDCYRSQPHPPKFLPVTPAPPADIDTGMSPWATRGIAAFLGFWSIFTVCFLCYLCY
# Text: Collectively, the findings from molecular modeling, ELISA, and SPR prompted a more detailed investigation into the binding mechanisms, leading us to explore the possibility of distinct binding sites for UL141 in its interaction with glycomimetic compound 18. To further clarify this, we conducted mutational analysis on the surface residues of UL141 to identify specific binding sites involved in this interaction. The following residues were selected for alanine-scanning mutagenesis, followed by SPR analysis to assess their contribution to the binding affinity of UL141 for 18: Asp91, Glu92, Arg82, Arg80, and Asp37 (site A); Tyr148 and Arg146 (site B); and Arg85, Leu163, Glu164, Pro231, Trp235, and Asp232 (site C) (Fig. 9A). The UL141 mutants were generated through single alanine substitutions and recombinantly produced in the BV-Sf9 system following the same protocol as the WT UL141. […] The binding affinities of the remaining mutants were assessed using SPR, as illustrated in Figure 9. […] Binding interactions were monitored over a 300-s period. […]
# Figure 9 Mutational analysis of UL141 binding sites for antagonist 18. […] An alternative representation of the same SPR data, showing all measured concentration points, is provided in panel (C), with the structure of compound 18 included for reference. […]
# HCMV UL141 = molecular target: T2, HCMV UL141 (Human cytomegalovirus, UniProt Q6RJQ3); assay: biochemical; assay type: binding
# T2 construct: we expressed and purified the full-length recombinant UL141 (amino acids 30–300); made in house
# T2 sequence (Q6RJQ3 30-300): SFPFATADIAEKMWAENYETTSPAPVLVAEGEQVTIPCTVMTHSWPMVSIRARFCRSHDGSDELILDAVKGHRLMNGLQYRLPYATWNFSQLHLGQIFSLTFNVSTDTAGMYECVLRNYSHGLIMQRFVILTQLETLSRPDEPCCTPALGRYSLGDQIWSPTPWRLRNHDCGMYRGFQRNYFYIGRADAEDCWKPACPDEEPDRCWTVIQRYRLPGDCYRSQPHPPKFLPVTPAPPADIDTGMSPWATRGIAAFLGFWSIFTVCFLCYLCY
# Protocol: To prepare HCMV UL141 for binding studies, biotinylation was performed using the BiotinTag Micro Biotinylation Kit (Sigma-Aldrich). Purified UL141 protein (50 μg in 50 μl) was mixed with 50 μl of BiotinTag reaction buffer provided in the kit. Sulfo-NHS-Biotin reagent was freshly prepared by dissolving the vial contents in 1 ml of sterile water. A calculated volume of the biotin reagent was added to achieve a 20:1 M excess of biotin to protein. The reaction mixture was incubated for 30 min at room temperature with gentle mixing to ensure efficient labeling. Following incubation, unreacted biotin was removed using the desalting column included in the kit. The biotinylated UL141 protein was eluted in 50 mM Hepes, pH 7.5, 150 mM NaCl. Biotin incorporation was verified using a colorimetric biotin quantification assay (e.g., HABA assay). The biotinylated protein was then quantified spectrophotometrically using a NanoDrop instrument and concentrated to the desired level for Biacore or ELISA binding studies. The biotinylated protein was stored at 4 °C for short-term use or −80 °C for long-term storage to maintain stability.
# The sensor surface of an SA chip (Cytiva) was preconditioned with HBS-EP buffer (10 mM Hepes, 150 mM NaCl, 3 mM EDTA, 0.005% Tween-20) to stabilize the baseline and remove any loosely bound streptavidin. Before use, the buffer was filtered through a 0.2 μm polystyrene filter and degassed under vacuum for 10 min to eliminate air bubbles. Biotinylated HCMV UL141 was immobilized on the SA chip, maintaining biotinylation at 0.5 to 1.5 mol per mole of protein. Excess biotin was removed via gel filtration. UL141 was injected at 30 μl/min, achieving maximum immobilization (4000–6000 RU), followed by washing with running buffer. Residual unbound proteins were optionally removed with a 2 M NaCl pulse. To ensure optimal SPR signal detection, which depends on the analyte mass bound to the ligand, relatively high amounts of ligand were immobilized on the sensor chip to achieve a significant response signal upon binding of the small compound. […] Regeneration of the chip surface, when necessary, was performed using 5 mM NaOH. Control injections of zero concentrations and duplicate injections of selected concentrations were included to validate surface regeneration. […]
# [1] = UL141 immobilized, substance as analyte, 1:1 Langmuir model
# [2] = UL141 immobilized, substance as analyte, 1:1 Langmuir model, listed as cmp 18
smiles,measurement,setting,value
CCC1C(O)C(O)CN1Cc1ccc(I)cc1 (centres unmarked) [Compound 18],binding to UL141 mutant,UL141 W235A mutant,prevented binding
same,Kd,"HCMV UL141; UL141 immobilized (ligand), substance in solution (analyte), 1:1 Langmuir model, 25 °C",2.93 µM
same,Kd,"HCMV UL141; binding to UL141, SPR",2.93 µM and 2.9 µM
same,Rmax,"HCMV UL141; UL141 immobilized, substance as analyte",19
same,koff,HCMV UL141; [1],0.157 s⁻¹
same,kon,HCMV UL141; [1],53600 M⁻¹ s⁻¹
same,koff,HCMV UL141; [2],(1.57 ± 0.039) × 10^−1 s^−1
same,kon,HCMV UL141; [2],(5.36 ± 0.003) × 10^4 M^−1s^−1
